Bridge positions count the residues as written; N and C are the ends. Square brackets hold non-standard residues; d marks the D form. Peptide text beside a SMILES is read from it. * marks the point of attachment. ξ: configuration not given here. Phe(4-COOH) = N[C@@H](Cc1ccc(C(=O)O)cc1)C(=O)O; Bip = N[C@@H](Cc1ccc(-c2ccccc2)cc1)C(=O)O; Phe(3-Me) = Cc1cccc(C[C@H](N)C(=O)O)c1; Cha = N[C@@H](CC1CCCCC1)C(=O)O; Cit = NC(=O)NCCC[C@H](N)C(=O)O; NMeN = CN[C@@H](CC(N)=O)C(=O)O; Thr(3ξ) = CC(O)[C@H](N)C(=O)O; hSer = N[C@@H](CCO)C(=O)O; Carboxymethyl = O=C(O)C*; NMeA = CN[C@@H](C)C(=O)O; Orn = NCCC[C@H](N)C(=O)O; Aun = NCCCCCCCCCCC(=O)O; Dab = NCC[C@H](N)C(=O)O; AEEA = NCCOCCOCC(=O)O

The target in this experiment is T1, PD-1/PD-L1 interaction (PE-labeled human PD-L1-Ig binding to Jurkat cell line over-expressing human PD-1) (Homo sapiens, UniProt Q15116).
T1 construct: expressed in transfected cells; host or cells: Jurkat
T1 sequence (Q15116 25-288): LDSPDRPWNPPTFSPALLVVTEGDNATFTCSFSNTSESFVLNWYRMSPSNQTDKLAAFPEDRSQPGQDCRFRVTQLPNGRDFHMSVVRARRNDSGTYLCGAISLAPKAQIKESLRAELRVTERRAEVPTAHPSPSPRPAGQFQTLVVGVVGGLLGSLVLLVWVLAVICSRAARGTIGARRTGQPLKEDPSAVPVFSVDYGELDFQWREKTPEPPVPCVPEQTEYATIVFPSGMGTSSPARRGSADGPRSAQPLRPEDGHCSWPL
Description: Jurkat-PD-1 Cell Binding High-Content Screening Assay (CBA). Format: cell-based. To be noted: Jurkat cell line over-expressing human PD-1; PE-labeled PD-L1-Ig 20 nM final; read-out: Jurkat hPD1-PDL1 IC50. Put shortly:
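Binding of fluorescent PD-L1-Ig (phycoerythrin on Ig tag, 20 nM final, 1 h) measured by high-content imaging of fixed, Hoechst-counterstained Jurkat-hPD-1 cells. Compound added 2 h at 37° C beforehand, in DMEM with 10% fetal calf serum.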
As to `Cc1cccc(C[C@@H]2NC(=O)[C@H](CC(=O)O)NC(=O)[C@H](Cc3ccc(OCC(=O)O)cc3)NC(=O)[C@H](CCCNC(=N)N)NC(=O)CSC[C@@H](C(=O)N[C@@H](CCN)C(=O)NCCCCCCCCCCC(=O)O)NC(=O)[C@H](CCCN)NC(=O)[C@H](C(C)C)NC(=O)[C@H](CC3CCCCC3)NC(=O)[C@H](CCN)NC(=O)[C@@H](CC(C)C)NC(=O)[C@H](CCCN)NC(=O)[C@H](CCCNC(N)=O)NC(=O)[C@H](Cc3ccc(-c4ccccc4)cc3)NC(=O)[C@H](C(C)C)NC2=O)c1` [Compound 3306] ({CH2CO}-RY(Carboxymethyl)D[Phe(3-Me)]V[Bip][Cit][Orn][dL][Dab][Cha]V[Orn]C[Dab][Aun]-OH; thioether N-14), the IC50 (usually the concentration that gives 50% inhibition) was 7.9 nM. For `Cc1cccc(C[C@@H]2NC(=O)[C@H](CC(=O)O)NC(=O)[C@H](Cc3ccc(OCC(=O)O)cc3)NC(=O)[C@H](CCCNC(=N)N)NC(=O)CSC[C@@H](C(=O)N[C@@H](CCN)C(=O)NCCCCCCCCCCC(=O)O)NC(=O)[C@H](C(C)O)NC(=O)[C@H](C(C)C)NC(=O)[C@H](CC3CCCCC3)NC(=O)[C@H](CCN)NC(=O)[C@@H](CC(C)C)NC(=O)[C@H](CCN)NC(=O)[C@H](CCCNC(N)=O)NC(=O)[C@H](Cc3ccc(-c4ccccc4)cc3)NC(=O)[C@H](C(C)C)NC2=O)c1` (stereo partly drawn) [Compound 3307] ({CH2CO}-RY(Carboxymethyl)D[Phe(3-Me)]V[Bip][Cit][Dab][dL][Dab][Cha]V[Thr(3ξ)]C[Dab][Aun]-OH; thioether N-14) the value was 7.4 nM; for `Cc1cccc(C[C@@H]2NC(=O)[C@H](CC(=O)O)NC(=O)[C@H](Cc3ccc(OCC(=O)O)cc3)NC(=O)[C@H](CCCNC(=N)N)NC(=O)CSC[C@@H](C(=O)N[C@H](CC(N)=O)C(=O)NCCCCCCCCCCC(=O)O)NC(=O)[C@H](CCCN)NC(=O)[C@H](C(C)C)NC(=O)[C@H](CC3CCCCC3)NC(=O)[C@H](CCN)NC(=O)[C@@H](CC(C)C)NC(=O)[C@H](CCCN)NC(=O)[C@H](CCCNC(N)=O)NC(=O)[C@H](Cc3ccc(-c4ccccc4)cc3)NC(=O)[C@H](C(C)C)NC2=O)c1` [Compound 3311] ({CH2CO}-RY(Carboxymethyl)D[Phe(3-Me)]V[Bip][Cit][Orn][dL][Dab][Cha]V[Orn]C[dN][Aun]-OH; thioether N-14), 4.4 nM. With `Cc1cccc(C[C@@H]2NC(=O)[C@H](CC(=O)O)NC(=O)[C@H](Cc3ccc(OCC(=O)O)cc3)NC(=O)[C@H](C(C)O)NC(=O)CSC[C@@H](C(=O)N[C@H](CC(N)=O)C(=O)NCCCCCCCCCCC(=O)O)NC(=O)[C@H](CCCN)NC(=O)[C@H](C(C)C)NC(=O)[C@H](CC3CCCCC3)NC(=O)[C@H](CCN)NC(=O)[C@@H](CC(C)C)NC(=O)[C@H](CCCN)NC(=O)[C@H](CCCNC(N)=O)NC(=O)[C@H](Cc3ccc(-c4ccccc4)cc3)NC(=O)[C@H](C(C)C)NC2=O)c1` (stereo partly drawn) [Compound 3312] ({CH2CO}-[Thr(3ξ)]Y(Carboxymethyl)D[Phe(3-Me)]V[Bip][Cit][Orn][dL][Dab][Cha]V[Orn]C[dN][Aun]-OH; thioether N-14), the IC50 came out at 4.4 nM.

As to `Cc1cccc(C[C@@H]2NC(=O)[C@H](CC(=O)O)NC(=O)[C@H](Cc3ccc(OCC(=O)O)cc3)NC(=O)[C@H](CCCNC(=N)N)NC(=O)CSC[C@@H](C(=O)NCCCCCCCCCCC(=O)O)NC(=O)[C@H](CCCN)NC(=O)[C@H](C(C)C)NC(=O)[C@H](CC3CCCCC3)NC(=O)[C@H](CCN)NC(=O)[C@@H](CC(C)C)NC(=O)[C@H](CCCN)NC(=O)[C@H](C(C)C)NC(=O)[C@H](Cc3ccc(-c4ccccc4)cc3)NC(=O)[C@H](C(C)C)NC2=O)c1` [Compound 3316] ({CH2CO}-RY(Carboxymethyl)D[Phe(3-Me)]V[Bip]V[Orn][dL][Dab][Cha]V[Orn]C[Aun]-OH; thioether N-14), the IC50 was 6.2 nM.

`Cc1cccc(C[C@@H]2NC(=O)[C@H](CC(=O)O)NC(=O)[C@H](Cc3ccc(OCC(=O)O)cc3)NC(=O)[C@H](CCCNC(=N)N)NC(=O)CSC[C@@H](C(=O)N(C)[C@@H](C)C(=O)NCCOCCOCC(=O)NCCCCCCCCCCC(=O)O)NC(=O)[C@H](CCCN)NC(=O)[C@H](C(C)C)NC(=O)[C@H](CC3CCCCC3)NC(=O)[C@H](CCN)NC(=O)[C@@H](CC(C)C)NC(=O)[C@H](CCN)NC(=O)[C@H](C(C)C)NC(=O)[C@H](Cc3ccc(-c4ccccc4)cc3)NC(=O)[C@H](C(C)C)NC2=O)c1` [Compound 3319] ({CH2CO}-RY(Carboxymethyl)D[Phe(3-Me)]V[Bip]V[Dab][dL][Dab][Cha]V[Orn]C[NMeA][AEEA][Aun]-OH; thioether N-14): the IC50 is 53.4 nM.

Consider `Cc1cccc(C[C@@H]2NC(=O)[C@H](CC(=O)O)NC(=O)[C@H](Cc3ccc(OCC(=O)O)cc3)NC(=O)[C@H](C(C)O)NC(=O)CSC[C@@H](C(=O)N(C)[C@@H](C)C(=O)NCCOCCOCC(=O)NCCCCCCCCCCC(=O)O)NC(=O)[C@H](CCCN)NC(=O)[C@H](C(C)C)NC(=O)[C@H](CC3CCCCC3)NC(=O)[C@H](CCN)NC(=O)[C@@H](CC(C)C)NC(=O)[C@H](CCN)NC(=O)[C@H](C(C)C)NC(=O)[C@H](Cc3ccc(-c4ccccc4)cc3)NC(=O)[C@H](C(C)C)NC2=O)c1` (stereo partly drawn) [Compound 3320] ({CH2CO}-[Thr(3ξ)]Y(Carboxymethyl)D[Phe(3-Me)]V[Bip]V[Dab][dL][Dab][Cha]V[Orn]C[NMeA][AEEA][Aun]-OH; thioether N-14), for which the IC50 was 68.5 nM.

`Cc1cccc(C[C@@H]2NC(=O)[C@H](CC(=O)O)NC(=O)[C@H](Cc3ccc(OCC(=O)O)cc3)NC(=O)[C@H](CCCNC(=N)N)NC(=O)CSC[C@@H](C(=O)N(C)[C@@H](CC(N)=O)C(=O)NCCOCCOCC(=O)NCCCCCCCCCCC(=O)O)NC(=O)[C@H](CCCN)NC(=O)[C@H](C(C)C)NC(=O)[C@H](CC3CCCCC3)NC(=O)[C@H](CCN)NC(=O)[C@@H](CC(C)C)NC(=O)[C@H](CCN)NC(=O)[C@H](C(C)C)NC(=O)[C@H](Cc3ccc(-c4ccccc4)cc3)NC(=O)[C@H](C(C)C)NC2=O)c1` [Compound 3321] ({CH2CO}-RY(Carboxymethyl)D[Phe(3-Me)]V[Bip]V[Dab][dL][Dab][Cha]V[Orn]C[NMeN][AEEA][Aun]-OH; thioether N-14): the IC50 is 51 nM. For `Cc1cccc(C[C@@H]2NC(=O)[C@H](CC(=O)O)NC(=O)[C@H](Cc3ccc(OCC(=O)O)cc3)NC(=O)[C@H](C(C)O)NC(=O)CSC[C@@H](C(=O)N(C)[C@@H](CC(N)=O)C(=O)NCCOCCOCC(=O)NCCCCCCCCCCC(=O)O)NC(=O)[C@H](CCCN)NC(=O)[C@H](C(C)C)NC(=O)[C@H](CC3CCCCC3)NC(=O)[C@H](CCN)NC(=O)[C@@H](CC(C)C)NC(=O)[C@H](CCN)NC(=O)[C@H](C(C)C)NC(=O)[C@H](Cc3ccc(-c4ccccc4)cc3)NC(=O)[C@H](C(C)C)NC2=O)c1` (stereo partly drawn) [Compound 3322] ({CH2CO}-[Thr(3ξ)]Y(Carboxymethyl)D[Phe(3-Me)]V[Bip]V[Dab][dL][Dab][Cha]V[Orn]C[NMeN][AEEA][Aun]-OH; thioether N-14) the value was 36.8 nM. Under `Cc1cccc(C[C@@H]2NC(=O)[C@H](CC(=O)O)NC(=O)[C@H](Cc3ccc(C(=O)O)cc3)NC(=O)[C@H](Cc3ccc(OCC(=O)O)cc3)NC(=O)CSC[C@@H](C(=O)NCCOCCOCC(=O)NCCCCCCCCCCC(=O)O)NC(=O)[C@H](CCO)NC(=O)[C@H](C(C)C)NC(=O)[C@H](CC3CCCCC3)NC(=O)[C@H](CCN)NC(=O)[C@@H](CC(C)C)NC(=O)[C@H](CCCN)NC(=O)[C@H](C(C)C)NC(=O)[C@H](Cc3ccc(-c4ccccc4)cc3)NC(=O)[C@H](C(C)C)NC2=O)c1` [Compound 3327] ({CH2CO}-Y(Carboxymethyl)[Phe(4-COOH)]D[Phe(3-Me)]V[Bip]V[Orn][dL][Dab][Cha]V[hSer]C[AEEA][Aun]-OH; thioether N-14) stands 31.4 nM; under `CC(=O)NCCCC[C@@H]1NC(=O)[C@H](Cc2ccc(-c3ccccc3)cc2)NC(=O)[C@H](C(C)C)NC(=O)[C@H](Cc2c[nH]c3ccccc23)NC(=O)[C@H](CC(=O)O)NC(=O)[C@H](Cc2ccc(OCC(=O)O)cc2)NC(=O)[C@H](CCCNC(=N)N)NC(=O)CSC[C@@H](C(=O)NCCOCCOCC(=O)NCCCCCCCCCCC(=O)O)NC(=O)[C@H](C(C)O)NC(=O)[C@H](C(C)C)NC(=O)[C@H](CC2CCCCC2)NC(=O)[C@H](CCN)NC(=O)[C@@H](CC(C)C)NC(=O)[C@H](CCCN)NC1=O` (stereo partly drawn) [Compound 3335] ({CH2CO}-RY(Carboxymethyl)DWV[Bip]K(Ac)[Orn][dL][Dab][Cha]V[Thr(3ξ)]C[AEEA][Aun]-OH; thioether N-14), 8.2 nM; under `CC(C)C[C@H]1NC(=O)[C@H](CCCN)NC(=O)[C@H](C(C)C)NC(=O)[C@H](Cc2ccc(-c3ccccc3)cc2)NC(=O)[C@H](CCO)NC(=O)[C@H](Cc2c[nH]c3ccccc23)NC(=O)[C@H](CC(=O)O)NC(=O)[C@H](Cc2ccc(OCC(=O)O)cc2)NC(=O)[C@H](CCCNC(=N)N)NC(=O)CSC[C@@H](C(=O)N[C@@H](CCCN)C(=O)NCCCCCCCCCCC(=O)O)NC(=O)[C@H](C(C)O)NC(=O)[C@H](C(C)C)NC(=O)[C@H](CC2CCCCC2)NC(=O)[C@H](CCN)NC1=O` (stereo partly drawn) [Compound 3338] ({CH2CO}-RY(Carboxymethyl)DW[hSer][Bip]V[Orn][dL][Dab][Cha]V[Thr(3ξ)]C[Orn][Aun]-OH; thioether N-14), 27.4 nM. Under `CC(C)C[C@H]1NC(=O)[C@H](CCCN)NC(=O)[C@H](C(C)C)NC(=O)[C@H](Cc2ccc(-c3ccccc3)cc2)NC(=O)[C@H](C(C)C)NC(=O)[C@H](Cc2c[nH]c3ccccc23)NC(=O)[C@H](CC(=O)O)NC(=O)[C@H](Cc2ccc(OCC(=O)O)cc2)NC(=O)[C@H](CCCNC(=N)N)NC(=O)CSC[C@@H](C(=O)N[C@@H](CCCN)C(=O)NCCCCCCCCCCC(=O)O)NC(=O)[C@H](CCO)NC(=O)[C@H](C(C)C)NC(=O)[C@H](CC2CCCCC2)NC(=O)[C@H](CCN)NC1=O` [Compound 3339] ({CH2CO}-RY(Carboxymethyl)DWV[Bip]V[Orn][dL][Dab][Cha]V[hSer]C[Orn][Aun]-OH; thioether N-14) stands 8.7 nM.

The record behind these values is patent US20260022142A1, “MACROCYCLIC IMMUNOMODULATORS” (Bristol-Myers Squibb Company, priority 2022, published 2026).
